Laboratory results as given in BindingDB's records for doi:10.1021/acs.jmedchem.8b00082 (Abbvie, 2018).
pEC50: −log10 of the molar value.

What was measured:
[1] = Inhibition of NS5A in HuH7 cell infected HCV genotype 1a H77 assessed as decrease in viral replication after 3 days by luciferase reporter gene assay
[2] = Inhibition of NS5A in HuH7 cell infected HCV genotype 1b Con1 assessed as decrease in viral replication after 3 days by luciferase reporter gene assay
[3] = Inhibition of HCV genotype 1b Con1 NS5A expressed in HuH7 cell infected HCV genotype 2b assessed as decrease in viral replication after 3 days by luciferase reporter gene assay
[4] = Inhibition of HCV genotype 1b Con1 NS5A expressed in HuH7 cell infected HCV genotype 3a assessed as decrease in viral replication after 3 days by luciferase reporter gene assay
[5] = Inhibition of HCV genotype 1b Con1 NS5A expressed in HuH7 cell infected HCV genotype 4a assessed as decrease in viral replication after 3 days by luciferase reporter gene assay
[6] = Inhibition of HCV genotype 1b Con1 NS5A expressed in HuH7 cell infected HCV genotype 5a assessed as decrease in viral replication after 3 days by luciferase reporter gene assay
[7] = Inhibition of HCV genotype 1b Con1 NS5A expressed in HuH7 cell infected HCV genotype 2a assessed as decrease in viral replication after 3 days by luciferase reporter gene assay
[8] = Inhibition of HCV genotype 1b Con1 NS5A expressed in HuH7 cell infected HCV genotype 6a assessed as decrease in viral replication after 3 days by luciferase reporter gene assay
[9] = Inhibition of NS5A in HuH7 cell infected HCV genotype 1a H77 assessed as decrease in viral replication after 3 days in presence of 40% human plasma by luciferase reporter gene assay
[10] = Inhibition of NS5A in HuH7 cell infected HCV genotype 1b Con1 assessed as decrease in viral replication after 3 days in presence of 40% human plasma by luciferase reporter gene assay

COC(=O)N[C@H](C(=O)N1CCC[C@H]1c1nc2cc(F)c([C@H]3CC[C@H](c4cc5[nH]c([C@@H]6CCCN6C(=O)[C@@H](NC(=O)OC)C(C)C)nc5cc4F)N3c3cc(F)c(N4CCC(c5ccc(F)cc5)CC4)c(F)c3)cc2[nH]1)C(C)C
pEC50 [1]: 12.00 | pEC50 [2]: 11.52 | pEC50 [3]: 11.70 | pEC50 [4]: 12.00 | pEC50 [5]: 12.00 | pEC50 [6]: 12.00 | pEC50 [7]: 11.52 | pEC50 [8]: 11.52 | pEC50 [9]: 10.15 | pEC50 [10]: 9.76

COC(=O)N[C@H](C(=O)N1CCC[C@H]1c1nc2ccc([C@H]3CC[C@H](c4ccc5nc([C@@H]6CCCN6C(=O)[C@@H](NC(=O)OC)C(C)C)[nH]c5c4)N3c3cc(F)c(N4CCC(c5ccccc5)CC4)c(F)c3)cc2[nH]1)C(C)C
pEC50 [1]: 11.70 | pEC50 [2]: 11.22 | pEC50 [3]: 11.22 | pEC50 [4]: 11.22 | pEC50 [5]: 11.40 | pEC50 [6]: 11.52 | pEC50 [7]: 11.10 | pEC50 [8]: 11.10 | pEC50 [9]: 10.12 | pEC50 [10]: 9.74

COC(=O)N[C@H](C(=O)N1CCC[C@H]1c1nc2cc(F)c([C@H]3CC[C@H](c4cc5[nH]c([C@@H]6CCCN6C(=O)[C@@H](NC(=O)OC)[C@@H](C)OC)nc5cc4F)N3c3cc(F)c(N4CCC(c5ccccc5)CC4)c(F)c3)cc2[nH]1)[C@@H](C)OC
pEC50 [1]: 12.00 | pEC50 [2]: 11.52 | pEC50 [3]: 11.52 | pEC50 [4]: 11.52 | pEC50 [5]: 11.52 | pEC50 [6]: 11.70 | pEC50 [7]: 11.52 | pEC50 [8]: 11.40 | pEC50 [9]: 10.37 | pEC50 [10]: 9.86

COC(=O)N[C@H](C(=O)N1CCC[C@H]1c1nc2cc(F)c([C@H]3CC[C@H](c4cc5[nH]c([C@@H]6CCCN6C(=O)[C@@H](NC(=O)OC)C6CCOCC6)nc5cc4F)N3c3cc(F)c(N4CCC(c5ccccc5)CC4)c(F)c3)cc2[nH]1)C1CCOCC1
pEC50 [1]: 11.40 | pEC50 [2]: 11.10 | pEC50 [3]: 11.10 | pEC50 [4]: 10.96 | pEC50 [5]: 11.22 | pEC50 [6]: 11.22 | pEC50 [7]: 11.05 | pEC50 [8]: 10.92 | pEC50 [9]: 9.87 | pEC50 [10]: 9.47

COC(=O)N[C@H](C(=O)N1CCC[C@H]1c1nc2cc(F)c([C@H]3CC[C@H](c4cc5[nH]c([C@@H]6CCCN6C(=O)[C@@H](NC(=O)OC)C6CCOCC6)nc5cc4F)N3c3cc(F)c(N4CCC(c5ccc(F)cc5)CC4)c(F)c3)cc2[nH]1)C1CCOCC1
pEC50 [1]: 11.52 | pEC50 [2]: 11.15 | pEC50 [3]: 11.10 | pEC50 [4]: 11.15 | pEC50 [5]: 11.22 | pEC50 [6]: 11.30 | pEC50 [7]: 11.10 | pEC50 [8]: 11.10 | pEC50 [9]: 9.66 | pEC50 [10]: 9.28

COC(=O)N[C@H](C(=O)N1CCC[C@H]1c1nc2cc(F)c([C@H]3CC[C@H](c4cc5[nH]c([C@@H]6CCCN6C(=O)[C@@H](NC(=O)OC)C(C)C)nc5cc4F)N3c3cc(F)c(N4CCC(c5ccccc5)CC4)c(F)c3)cc2[nH]1)C(C)C
pEC50 [1]: 11.70 | pEC50 [2]: 11.22 | pEC50 [3]: 11.52 | pEC50 [4]: 11.40 | pEC50 [5]: 11.40 | pEC50 [6]: 11.70 | pEC50 [7]: 11.10 | pEC50 [8]: 11.05 | pEC50 [9]: 10.24 | pEC50 [10]: 9.87

COC(=O)N[C@H](C(=O)N1CCC[C@H]1c1nc2cc([C@H]3CC[C@H](c4cc5nc([C@@H]6CCCN6C(=O)[C@@H](NC(=O)OC)[C@@H](C)OC)[nH]c5cc4F)N3c3cc(F)c(N4CCC(c5ccc(F)cc5)CC4)c(F)c3)c(F)cc2[nH]1)[C@@H](C)OC [A-1325912.0]
pEC50 [1]: 11.74 | pEC50 [2]: 11.37 | pEC50 [3]: 11.72 | pEC50 [4]: 11.68 | pEC50 [5]: 11.72 | pEC50 [6]: 11.85 | pEC50 [7]: 11.64 | pEC50 [8]: 11.55 | pEC50 [9]: 10.19 | pEC50 [10]: 9.70

COC(=O)N[C@H](C(=O)N1CCC[C@H]1C(=O)Nc1ccc([C@@H]2CC[C@@H](c3ccc(NC(=O)[C@@H]4CCCN4C(=O)[C@@H](NC(=O)OC)C(C)C)cc3)N2c2ccc(C(C)(C)C)cc2)cc1)C(C)C [CHEBI:85183]
pEC50 [1]: 10.85 | pEC50 [2]: 11.30 | pEC50 [3]: 11.37 | pEC50 [4]: 10.72 | pEC50 [5]: 11.77 | pEC50 [6]: 11.49 | pEC50 [7]: 10.92 | pEC50 [8]: 9.44 | pEC50 [9]: 9.73 | pEC50 [10]: 10.25
